For the data set, the system named is CCRIS mutagenicity, Ames/micronucleus/aberration tests. Kind of data set: CCRIS mutagenicity studies. The note with it: Test System: AMES SALMONELLA TYPHIMURIUM
[1] abbreviates: Strain/Indicator: TA98, Metabolic Activation: RAT, LIVER, S-9, AROCLOR 1254, Method: STANDARD PLATE.
Where [2] appears, read: Strain/Indicator: TA1535, Metabolic Activation: RAT, LIVER, S-9, AROCLOR 1254, Method: STANDARD PLATE.
[3] abbreviates: Strain/Indicator: TA97, Metabolic Activation: HAMSTER, LIVER, S-9, AROCLOR 1254 (10%), Method: PREINCUBATION
Where [4] appears, read: Strain/Indicator: TA97, Metabolic Activation: NONE, Method: PREINCUBATION
The mark [5] stands for this setting: Strain/Indicator: TA97, Metabolic Activation: RAT, LIVER, S-9, AROCLOR 1254 (10%), Method: PREINCUBATION
Where [6] appears, read: Strain/Indicator: TA98, Metabolic Activation: HAMSTER, LIVER, S-9, AROCLOR 1254 (10%), Method: PREINCUBATION
The mark [7] stands for this setting: Strain/Indicator: TA98, Metabolic Activation: NONE, Method: PREINCUBATION
Where [8] appears, read: Strain/Indicator: TA98, Metabolic Activation: RAT, LIVER, S-9, AROCLOR 1254 (10%), Method: PREINCUBATION
Where [9] appears, read: Strain/Indicator: TA100, Metabolic Activation: RAT, LIVER, S-9, AROCLOR 1254 (10%), Method: PREINCUBATION
Where [10] appears, read: Strain/Indicator: TA1535, Metabolic Activation: HAMSTER, LIVER, S-9, AROCLOR 1254 (10%), Method: PREINCUBATION
Where [11] appears, read: Strain/Indicator: TA1535, Metabolic Activation: NONE, Method: PREINCUBATION
Setting [12] is: Strain/Indicator: TA1535, Metabolic Activation: RAT, LIVER, S-9, AROCLOR 1254 (10%), Method: PREINCUBATION
The mark [13] stands for this setting: Strain/Indicator: TA1537, Metabolic Activation: NONE, Method: PREINCUBATION
Setting [14] is: Strain/Indicator: TA100, Metabolic Activation: RAT, LIVER, S-9, AROCLOR 1254, Method: STANDARD PLATE.

The structures appear in SMILES notation. Activity calls are given as the source filed them. The rule behind the calls is not given here.

As to `Oc1cc2ccccc2c2ccccc12`, the mutagenic call under setting [1] was “inactive; negative” and the mutagenic call under setting [2] was “active; positive”.

`Oc1ccc(Nc2ccc3ccccc3c2)cc1`: the mutagenic call was “inactive; negative” under setting [3]; “inactive; negative” (Strain/Indicator: TA97, Metabolic Activation: HAMSTER, LIVER, S-9, AROCLOR 1254 (30%), Method: PREINCUBATION); “inactive; negative” under setting [4]; “inactive; negative” under setting [5]; “inactive; negative” (Strain/Indicator: TA97, Metabolic Activation: RAT, LIVER, S-9, AROCLOR 1254 (30%), Method: PREINCUBATION); “inactive; negative” under setting [6]. In addition, the mutagenic call (Strain/Indicator: TA98, Metabolic Activation: HAMSTER, LIVER, S-9, AROCLOR 1254 (30%), Method: PREINCUBATION) is “inactive; negative”; the mutagenic call under setting [7] is “inactive; negative”; the mutagenic call under setting [8] is “inactive; negative”; the mutagenic call (Strain/Indicator: TA98, Metabolic Activation: RAT, LIVER, S-9, AROCLOR 1254 (30%), Method: PREINCUBATION) was “inactive; negative”; the mutagenic call (Strain/Indicator: TA100, Metabolic Activation: HAMSTER, LIVER, S-9, AROCLOR 1254 (10%), Method: PREINCUBATION) is “inactive; negative”; the mutagenic call (Strain/Indicator: TA100, Metabolic Activation: HAMSTER, LIVER, S-9, AROCLOR 1254 (30%), Method: PREINCUBATION) is “inactive; negative”. The mutagenic call (Strain/Indicator: TA100, Metabolic Activation: NONE, Method: PREINCUBATION) is “inactive; negative”; the mutagenic call under setting [9] was “inactive; negative”; the mutagenic call (Strain/Indicator: TA100, Metabolic Activation: RAT, LIVER, S-9, AROCLOR 1254 (30%), Method: PREINCUBATION) is “inactive; negative”; the mutagenic call under setting [10] was “inactive; negative”; the mutagenic call (Strain/Indicator: TA1535, Metabolic Activation: HAMSTER, LIVER, S-9, AROCLOR 1254 (30%), Method: PREINCUBATION) is “inactive; negative”; the mutagenic call under setting [11] was “inactive; negative”. The mutagenic call runs as follows: under setting [12], “inactive; negative”; (Strain/Indicator: TA1535, Metabolic Activation: RAT, LIVER, S-9, AROCLOR 1254 (30%), Method: PREINCUBATION) “inactive; negative”; (Strain/Indicator: TA1537, Metabolic Activation: HAMSTER, LIVER, S-9, AROCLOR 1254 (30%), Method: PREINCUBATION) “inactive; negative”; under setting [13], “inactive; negative”; (Strain/Indicator: TA1537, Metabolic Activation: RAT, LIVER, S-9, AROCLOR 1254 (30%), Method: PREINCUBATION) “inactive; negative”.

Take `O=C(O)/C=C\Cl`: the mutagenic call runs as follows: (Strain/Indicator: TA97, Metabolic Activation: RAT, LIVER, S-9, PCB, Method: STANDARD PLATE) “active; positive”; (Strain/Indicator: TA102, Metabolic Activation: RAT, LIVER, S-9, PCB, Method: STANDARD PLATE) “active; positive”.

For the compound `O=C1c2c(O)ccc(O)c2C(=O)C2C(O)=CC=C(O)C12` (stereo not given), the mutagenic call is, setting by setting: (Strain/Indicator: TA98, Metabolic Activation: NONE, Method: STANDARD PLATE) “inactive; negative”; under setting [1], “inactive; negative”; (Strain/Indicator: TA100, Metabolic Activation: NONE, Method: STANDARD PLATE) “inactive; negative”; under setting [14], “inactive; negative”; (Strain/Indicator: TA1535, Metabolic Activation: NONE, Method: STANDARD PLATE) “inactive; negative”; under setting [2], “inactive; negative”. The mutagenic call (Strain/Indicator: TA1537, Metabolic Activation: NONE, Method: STANDARD PLATE) was “active; positive” and the mutagenic call (Strain/Indicator: TA1538, Metabolic Activation: RAT, LIVER, S-9, AROCLOR 1254, Method: STANDARD PLATE) was “inactive; negative”.

For `O=C(O)c1ccccc1[N+](=O)[O-]`, the mutagenic call was “inactive; negative” under setting [3]; “inactive; negative” under setting [4]; “inactive; negative” under setting [5]; “inactive; negative” under setting [6]; “active; positive” under setting [7]; “inactive; negative” under setting [8]. Moreover, the mutagenic call was “active; positive” (Strain/Indicator: TA98, Metabolic Activation: RAT, LIVER, S-9, KANECHLOR 500, Method: PREINCUBATION); “inactive; negative” (Strain/Indicator: TA100, Metabolic Activation: HAMSTER, LIVER, S-9, AROCLOR 1254 (5 OR 30%), Method: PREINCUBATION); “inactive; negative” (Strain/Indicator: TA100, Metabolic Activation: HAMSTER, LIVER, S-9, AROCLOR 1254, FLAVIN MONONUCLEOTIDE, Method: PREINCUBATION); “inactive; negative” (Strain/Indicator: TA100, Metabolic Activation: HAMSTER, LIVER, S-9, AROCLOR 1254, Method: PREINCUBATION); “inactive; negative” (Strain/Indicator: TA100, Metabolic Activation: RAT, LIVER, S-9, AROCLOR 1254 (5 OR 30%), Method: PREINCUBATION); “inactive; negative” under setting [9]. For the same compound, the mutagenic call (Strain/Indicator: TA100, Metabolic Activation: RAT, LIVER, S-9, AROCLOR 1254, FLAVIN MONONUCLEOTIDE, Method: PREINCUBATION) was “inactive; negative”; the mutagenic call under setting [14] is “inactive; negative”; the mutagenic call (Strain/Indicator: TA100, Metabolic Activation: RAT, LIVER, S-9, KANECHLOR 500, Method: PREINCUBATION) is “active; positive”; the mutagenic call under setting [10] is “inactive; negative”; the mutagenic call under setting [11] is “inactive; negative”; the mutagenic call under setting [12] was “inactive; negative”. In addition, the mutagenic call was “inactive; negative” under setting [13] and “active; positive” (Strain/Indicator: TA1538, Metabolic Activation: NONE, Method: PREINCUBATION).

The values above are taken from PubChem BioAssay AID1259407 (Chemical Carcinogenesis Research Information System (CCRIS), 2018).
